4 molecules from publication PMC3914206 can be followed below.

What all share (format): binding
Holding throughout (set-up): KINOMEscan: ABL1(F317L)-phosphorylated / KINOMEscan: ABL1(H396P)-nonphosphorylated / KINOMEscan: ABL1(H396P)-phosphorylated / KINOMEscan: ABL1(M351T)-phosphorylated / KINOMEscan: ABL1(T315I)-phosphorylated / KINOMEscan: ABL1-nonphosphorylated / KINOMEscan: ABL1-phosphorylated / KINOMEscan: ACVR2A / KINOMEscan: ACVR2B / KINOMEscan: ADCK3 / KINOMEscan: ADCK4 / KINOMEscan: AKT1 / KINOMEscan: AKT3 / KINOMEscan: ALK / KINOMEscan: ARK5 / KINOMEscan: AURKA / KINOMEscan: AURKC / KINOMEscan: BIKE / KINOMEscan: BMPR1A / KINOMEscan: BMPR1B / KINOMEscan: BMX / KINOMEscan: BRK / KINOMEscan: BRSK1 / KINOMEscan: BRSK2 / KINOMEscan: CAMK1 / KINOMEscan: CAMK1D / KINOMEscan: CAMK1G / KINOMEscan: CAMK2A / KINOMEscan: CAMK2B / KINOMEscan: AAK1 / KINOMEscan: CAMK2D / KINOMEscan: CAMK2G / KINOMEscan: ABL1(F317I)-nonphosphorylated / KINOMEscan: ABL1(F317I)-phosphorylated / KINOMEscan: ABL1(F317L)-nonphosphorylated: unit: % Ctrl
Common to all, as to conditions: Compound Concentration 10 µM

The target of assay [1] is T1, panel of 442 kinases (Homo sapiens, UniProt P27361).
T1 construct: purchased KINOMEscan
The text has this:
(§1) We assessed the selectivity of members of this scaffold using the KINOMEscan methodology across a near comprehensive panel of 442 kinases [[18,27]].

Assay [2] addresses T2, panel of 442 kinases (Homo sapiens, UniProt P00519, F317L).
T2 construct: purchased KINOMEscan
Description: as §1

Assay [3] concerns the target T3, panel of 442 kinases (Homo sapiens, UniProt Q12852).
T3 construct: purchased KINOMEscan
T3 sequence (Q12852 1-859): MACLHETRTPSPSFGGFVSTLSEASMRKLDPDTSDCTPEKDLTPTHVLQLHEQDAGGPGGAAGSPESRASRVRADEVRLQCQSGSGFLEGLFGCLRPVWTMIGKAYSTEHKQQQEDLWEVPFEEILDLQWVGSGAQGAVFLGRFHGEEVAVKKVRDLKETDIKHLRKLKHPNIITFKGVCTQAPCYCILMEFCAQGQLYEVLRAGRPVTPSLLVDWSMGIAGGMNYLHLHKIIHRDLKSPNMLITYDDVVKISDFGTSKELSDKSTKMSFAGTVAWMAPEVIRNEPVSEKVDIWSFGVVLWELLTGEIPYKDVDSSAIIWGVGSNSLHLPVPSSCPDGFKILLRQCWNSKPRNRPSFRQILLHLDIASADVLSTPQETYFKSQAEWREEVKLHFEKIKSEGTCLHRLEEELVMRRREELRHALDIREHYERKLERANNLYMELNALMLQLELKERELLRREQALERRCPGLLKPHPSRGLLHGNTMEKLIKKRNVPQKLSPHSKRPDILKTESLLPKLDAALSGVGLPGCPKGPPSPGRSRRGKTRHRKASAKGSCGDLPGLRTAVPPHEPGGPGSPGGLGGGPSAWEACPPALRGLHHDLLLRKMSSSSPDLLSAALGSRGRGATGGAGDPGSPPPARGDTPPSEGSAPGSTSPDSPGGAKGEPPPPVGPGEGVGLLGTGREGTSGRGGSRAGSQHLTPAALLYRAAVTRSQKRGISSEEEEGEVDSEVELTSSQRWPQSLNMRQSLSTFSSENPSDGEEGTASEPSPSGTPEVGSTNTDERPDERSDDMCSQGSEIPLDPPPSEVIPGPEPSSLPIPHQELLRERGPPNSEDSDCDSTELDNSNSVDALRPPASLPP
Description: as §1

T2 sequence (P00519 whole entry F317L): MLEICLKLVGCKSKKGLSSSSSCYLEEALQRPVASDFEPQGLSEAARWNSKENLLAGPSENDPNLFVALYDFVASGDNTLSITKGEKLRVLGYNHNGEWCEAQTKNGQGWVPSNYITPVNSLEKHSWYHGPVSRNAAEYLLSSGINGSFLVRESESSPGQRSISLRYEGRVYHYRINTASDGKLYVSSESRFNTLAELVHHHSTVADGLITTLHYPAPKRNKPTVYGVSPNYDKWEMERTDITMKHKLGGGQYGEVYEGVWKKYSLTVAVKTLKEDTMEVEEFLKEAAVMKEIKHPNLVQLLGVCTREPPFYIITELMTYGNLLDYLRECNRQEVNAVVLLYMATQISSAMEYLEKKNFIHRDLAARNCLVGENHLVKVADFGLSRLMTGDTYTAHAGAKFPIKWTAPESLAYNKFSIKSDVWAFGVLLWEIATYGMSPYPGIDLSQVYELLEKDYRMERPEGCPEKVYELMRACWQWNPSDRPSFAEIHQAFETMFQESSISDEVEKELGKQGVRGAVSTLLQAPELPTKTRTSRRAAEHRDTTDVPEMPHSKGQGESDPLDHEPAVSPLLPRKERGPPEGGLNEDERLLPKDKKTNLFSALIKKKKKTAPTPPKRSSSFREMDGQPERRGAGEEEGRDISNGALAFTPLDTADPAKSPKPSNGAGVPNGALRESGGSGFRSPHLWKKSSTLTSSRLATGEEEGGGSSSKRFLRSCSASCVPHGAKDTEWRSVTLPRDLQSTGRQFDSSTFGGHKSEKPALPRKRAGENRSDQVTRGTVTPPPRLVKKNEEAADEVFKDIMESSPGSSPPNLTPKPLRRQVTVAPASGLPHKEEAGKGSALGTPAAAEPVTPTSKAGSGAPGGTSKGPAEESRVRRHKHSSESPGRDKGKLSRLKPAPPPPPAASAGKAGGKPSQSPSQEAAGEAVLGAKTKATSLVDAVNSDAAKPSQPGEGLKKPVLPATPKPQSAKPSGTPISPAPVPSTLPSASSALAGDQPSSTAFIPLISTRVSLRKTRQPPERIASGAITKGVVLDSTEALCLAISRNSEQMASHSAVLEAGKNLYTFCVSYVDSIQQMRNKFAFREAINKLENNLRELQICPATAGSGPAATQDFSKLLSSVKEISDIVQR
T1 sequence (P27361 whole entry): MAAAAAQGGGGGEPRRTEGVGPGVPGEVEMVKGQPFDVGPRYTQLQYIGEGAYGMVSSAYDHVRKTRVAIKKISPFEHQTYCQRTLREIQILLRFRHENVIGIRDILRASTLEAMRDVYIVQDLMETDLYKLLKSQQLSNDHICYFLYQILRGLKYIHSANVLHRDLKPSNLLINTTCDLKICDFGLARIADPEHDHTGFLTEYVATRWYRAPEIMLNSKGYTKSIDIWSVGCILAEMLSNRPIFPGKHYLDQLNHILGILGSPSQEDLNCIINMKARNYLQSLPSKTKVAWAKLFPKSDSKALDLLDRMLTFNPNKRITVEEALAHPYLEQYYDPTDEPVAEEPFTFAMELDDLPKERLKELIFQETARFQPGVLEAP

For the molecule `CCOc1cc(C(=O)N2CCC(N3CCN(C)CC3)CC2)ccc1Nc1ncc2c(n1)N(C1CCCC1)c1ccccc1C(=O)N2C` [Compound 26], the “KINOMEscan: ERK1” value at panel of 442 kinases [1] turned out to be 100. In addition, on panel of 442 kinases [2], the “KINOMEscan: ABL1(F317L)-nonphosphorylated” value worked out at 71 and the “KINOMEscan: ABL1(F317L)-phosphorylated” value stood at 34. At panel of 442 kinases [3], the “KINOMEscan: DLK” value was found to be 100.
Regarding `COc1cc(C(=O)N2CCC(N3CCN(C)CC3)CC2)ccc1Nc1ncc2c(n1)N1CCc3cccc(c31)C(=O)N2C` [Compound 24], at panel of 442 kinases [2], the “KINOMEscan: ABL1(F317L)-nonphosphorylated” value was 23 and the “KINOMEscan: ABL1(F317L)-phosphorylated” value is 7.8. On panel of 442 kinases [3], the “KINOMEscan: DLK” value was determined as 78.
As to `COc1cc(C(=O)N2CCC(N3CCN(C)CC3)CC2)ccc1Nc1ncc2c(n1)N(C)c1ccccc1C(=O)N2C` [15 (LRRK2-IN-1)], the “KINOMEscan: ERK1” value on panel of 442 kinases [1] came to 100. At panel of 442 kinases [2], the “KINOMEscan: ABL1(F317L)-nonphosphorylated” value was 14 and the “KINOMEscan: ABL1(F317L)-phosphorylated” value worked out at 0.85. Besides, at panel of 442 kinases [3], the “KINOMEscan: DLK” value came to 81.
For `COc1cc(C(=O)N2CCC(N3CCN(C)CC3)CC2)ccc1Nc1ncc2c(n1)N(C1CCCC1)c1ccccc1C(=O)N2C` [Compound 25, 11-cyclopentyl-2-((2-methoxy-4-(4-(4-methylpiperazin-1-yl)piperidine-1-carbonyl)phenyl)amino)-5-methyl-5H-benzo[e]pyrimido[5,4-b][1,4]diazepin-6(11H)-one], in that order: 96, 15, 9.1 and 62.
